Measurements from PMC11930985 (Nature Communications, 2025).
Several values for one entry are separate records, joined by “and”; a condition that tells them apart may be missing. Identical values can stand only once. Like-named read-outs stand apart in the source and are kept apart here.

Columns and labels:
[1] = test system: AML/MDS patients; assay: Response assessment (ELN AML / modified IWG MDS criteria): ORR, DCR; assay type: in vivo, human
Procedure: All patients underwent baseline disease assessments at screening (peripheral blood and bone marrow (BM)). Efficacy was assessed according to the blast percentage in a peripheral blood and BM aspirate sample, measurement of absolute neutrophil count, measurement of platelet count, and red cell transfusion requirement according to the European LeukemiaNet[37] response criteria for AML and the modified IWG response criteria for MDS[38]. Response criteria used are summarized in Supplementary Table 4.
Response assessments (peripheral blood and BM) were performed at Cycle 2 Day 1 (pre-dose), Cycle 4 Day 1 (pre-dose) and repeated every 3 cycles thereafter or when clinically indicated. Patients who completed 12 months of study treatment and had not experienced progressive disease (PD) underwent response assessment every 5 cycles until PD was confirmed. Efficacy endpoints were: Objective response rate (ORR), defined as the number of patients with CR, CRi, MLFS, MR or PR divided by the total number of patients in the cohort/group; Disease control rate (DCR), defined as the number of patients with CR, CRi, MLFS, MR, PR or unchanged disease for at least three cycles (considered to have stable disease (SD)) divided by the total number of patients in the cohort/group; Overall survival (OS), defined as (date of death or censoring) – (date of the first study treatment) +1. Censoring date was the last date the patient was known to be alive; Event free survival (EFS), defined as (earliest of date of death, date of progression or date of censoring) – (date of the first study treatment) +1, with event defined as death or progression. Patients who started a new anti-cancer treatment before documented progression were censored at the date of the last assessment prior to start of non-protocol treatment. […] Patients who were alive without documented progression on the last day of contact were censored at the date of the last assessment.

[2] = Bemcentinib plasma PK (LC-MS/MS, population PK model); assay type: in vivo, human; settings: for Cmax / AUC / half-life: human, plasma, oral; for Cmax: read-out: mean Cmax at steady state
Procedure: Thereafter, a pre-dose sample was collected at all study visits ( > Cycle 3 up to and including Cycle 15) and at End of Study. PK samples were measured using a fully validated liquid chromatography with tandem mass spectrometry method for bemcentinib. […] The PopPK model was developed by evaluating various structural models including 1 compartment and 2 compartment models. Covariate analysis was performed using a forward addition and backward elimination procedure, from which a preliminary base model was selected. During covariate analysis, continuous covariates were centered on the median population values, and the most common or most relevant category was used as the reference value for categorical covariates. A visual predictive check (VPC) was conducted to verify that the final model adequately predicted both the central tendency and variability of the observed data across studies or by proton pump inhibitor use. Quantification of parameter uncertainty in the final model was assessed by nonparametric bootstrap analysis. Population PK analysis was performed using the nonlinear mixed effects modelling methodology as implemented in the NONMEM program Version 7.4.4[35]. Data postprocessing was performed using R (Version 3.6.1)[36]. Individual population PK model parameters were estimated using NONMEM with the following $ESTIMATION parameters: METHOD = COND INTERACTION […] = 0 […] = 3. These parameters were subsequently used to predict individual steady-state profiles with a dense PK sampling scheme using the SIMULATION method in NONMEM.

[3] = test system: MD V 4-11 xenograft; set-up: method as in Investigator's Brochure (IB) version 5.0; settings: ref Investigator's Brochure (IB) version 5.0, cited from earlier work
[4] = test system: CYP3A4/5; set-up: method as in Investigator's Brochure (IB) version 5.0; settings: ref Investigator's Brochure (IB) version 5.0; cited from earlier work
[5] = test system: human lymphocytes; set-up: method as in Investigator's Brochure (IB) version 5.0; settings: ref Investigator's Brochure (IB) version 5.0; cited from earlier work

## Nc1nc(Nc2ccc3c(c2)CC[C@@H](N2CCCC2)CC3)nn1-c1cc2c(nn1)-c1ccccc1CCC2 [Bemcentinib]
[1]; DE 200/100 mg, N=4
  CR: 0 n (%)
  CRi: 0 n (%)
  MLFS: 0 n (%)
  MR (marrow response): 0 n (%)
  NE (not evaluable): 1 (25%) n (%)
  Non-Responder: 4 (100%) n (%)
  PD (progressive disease): 1 (25%) n (%)
  PR: 0 n (%)
  Responder: 0 (0%) n (%)
  UC (unchanged): 1 (25%) n (%)
[1]; DE 400/100 mg, N=6
  CR: 0 n (%)
  CRi: 0 n (%)
  MLFS: 0 n (%)
  MR (marrow response): 1 (17%) n (%)
  NE (not evaluable): 0 n (%)
  Non-Responder: 5 (83%) n (%)
  PD (progressive disease): 0 n (%)
  PR: 0 n (%)
  Responder: 1 (17%) n (%)
  UC (unchanged): 3 (50%) n (%)
[1]; DE 400/200 mg, N=7
  CR: 1 (14%) n (%)
  CRi: 1 (14%) n (%)
  MLFS: 0 n (%)
  MR (marrow response): 0 n (%)
  NE (not evaluable): 1 (14%) n (%)
  Non-Responder: 5 (71%) n (%)
  PD (progressive disease): 1 (14%) n (%)
  PR: 0 n (%)
  Responder: 2 (29%) n (%)
  UC (unchanged): 3 (43%) n (%)
[1]; DE 600/200 mg, N=14
  CR: 0 n (%)
  CRi: 1 (7%) n (%)
  MLFS: 1 (7%) n (%)
  MR (marrow response): 0 n (%)
  NE (not evaluable): 4 (29%) n (%)
  Non-Responder: 12 (86%) n (%)
  PD (progressive disease): 3 (21%) n (%)
  PR: 0 n (%)
  Responder: 2 (14%) n (%)
  UC (unchanged): 4 (29%) n (%)
[1]; DE 900/300 mg, N=5
  CR: 0 n (%)
  CRi: 0 n (%)
  MLFS: 0 n (%)
  MR (marrow response): 0 n (%)
  NE (not evaluable): 2 (40%) n (%)
  Non-Responder: 5 (100%) n (%)
  PD (progressive disease): 0 n (%)
  PR: 0 n (%)
  Responder: 0 (0%) n (%)
  UC (unchanged): 2 (40%) n (%)
[1]; DE cohort
  Median time to objective response: 22 days
[1]; DE cohort overall, 36 patients, monotherapy
  ORR: 14%
[1]; DE cohort, 400/200 mg dosing group
  ORR: 29%
[1]; DE overall, N=36
  CR: 1 (3%) n (%)
  CRi: 2 (6%) n (%)
  MLFS: 1 (3%) n (%)
  MR (marrow response): 1 (3%) n (%)
  NE (not evaluable): 8 (22%) n (%)
  Non-Responder: 31 (86%) n (%)
  PD (progressive disease): 5 (14%) n (%)
  PR: 0 n (%)
  Responder: 5 (14%) n (%)
  UC (unchanged): 13 (36%) n (%)
[2]; DE cohort, maintenance 100 mg daily
  mean Ctrough at steady state: 136 ± 109 ng/mL
[2]; DE cohort, maintenance 300 mg daily
  mean Ctrough at steady state: 382 ± 193 ng/mL
[2]; Figure 4, individual patients, concentration paired with maximum pAXL(Y779) inhibition
  bemcentinib concentration: 358 ng/mL and 79 ng/mL and 276 ng/mL and 103 ng/mL and 178 ng/mL and 74 ng/mL and 173 ng/mL and 0 ng/mL and 122 ng/mL and 105 ng/mL and 73.3 ng/mL and 6.36 ng/mL
[2]; LDAC cohort, maintenance 200 mg daily
  mean Ctrough at steady state: 196 ± 124 ng/mL
[2]; Supplementary Figure 1b, individual patients, concentration paired with maximum pSTAT5 (Y694) inhibition
  bemcentinib concentration: 358 ng/mL and 145 ng/mL and 276 ng/mL and 103 ng/mL and 124 ng/mL and 74 ng/mL and 118 ng/mL and 0 ng/mL and 81.5 ng/mL and 112 ng/mL and 270 ng/mL
[2]; Supplementary Figure 1c, individual patients, concentration paired with maximum pERK1/2 (T202/Y204) inhibition
  bemcentinib concentration: 358 ng/mL and 78.9 ng/mL and 276 ng/mL and 134 ng/mL and 130 ng/mL and 74.6 ng/mL and 118 ng/mL and 0 ng/mL and 98 ng/mL and 94 ng/mL and 73.4 ng/mL and 270 ng/mL
[2]; Supplementary Figure 1d, individual patients, concentration paired with maximum pAKT (S473) inhibition
  bemcentinib concentration: 408 ng/mL and 78.9 ng/mL and 276 ng/mL and 103 ng/mL and 130 ng/mL and 74 ng/mL and 225 ng/mL and 0 ng/mL and 81.5 ng/mL and 183 ng/mL and 73.4 ng/mL and 270 ng/mL
[2]; 100 mg, DE cohort, maintenance 100 mg daily, 10 patients
  Cmax: 140 ± 110 ng/mL
[2]; 100 mg, DE cohort, maintenance 100 mg daily, read-out: AUC
  AUC: 3310 ± 2630 ng·h/mL
[2]; 200 mg daily, LDAC cohort, read-out: median t1/2 (converted)
  half-life: 124 h
[2]; 200 mg, DE cohort, maintenance 200 mg daily, 21 patients
  Cmax: 162 ± 121 ng/mL
[2]; 200 mg, DE cohort, maintenance 200 mg daily, read-out: AUC
  AUC: 3810 ± 2860 ng·h/mL
[2]; 200 mg, LDAC cohort, maintenance 200 mg daily, 35 patients
  Cmax: 210 ± 128 ng/mL
[2]; 200 mg, LDAC cohort, maintenance 200 mg daily, read-out: mean AUC
  AUC: 4890 ± 3020 ng·h/mL
[2]; 300 mg, DE cohort, maintenance 300 mg daily, 5 patients
  Cmax: 398 ± 200 ng/mL
[2]; 300 mg, DE cohort, maintenance 300 mg daily, read-out: AUC
  AUC: 9390 ± 4720 ng·h/mL
[2]; DE cohort, maintenance 100 mg daily, read-out: median half-life (t1/2) (converted)
  half-life: 159 h
[2]; DE cohort, maintenance 200 mg daily, read-out: median half-life (t1/2) (converted)
  half-life: 124 h
[2]; DE cohort, maintenance 300 mg daily, read-out: median half-life (t1/2) (converted)
  half-life: 156 h
[3]; oral treatment
  Reduction in tumor burden: dose-dependent
[3]
  Axl and ERK phosphorylation levels: dose-dependent reduction
[4]
  Substrate and time-dependent inhibition of CYP3A4/5 activity: modest
[5]
  In vitro mammalian cell cytogenetic study result: negative
